Structures are written as SMILES.

Broadly, the Ki is a dissociation constant, usually derived from enzyme kinetics or from competition with a known ligand. Higher therefore signals weaker binding.

Experiment [1] has as its target Adenosine receptors; A1 & A2 (Rattus norvegicus) (UniProt P29276+P25099+P30543). Briefly: Selectivity as ratio of Ki against A2 and A1 receptors. In kind it is protein assay.
The target in experiment [2] is Adenosine A2 receptor (Rattus norvegicus, UniProt P29276+P30543). Briefly: Binding affinity towards adenosine A2 receptor was determined using radioligand [3H]NECA in rat brain striatum at 25 degree C. In kind it is tissue-based.
The target in experiment [3] is T1, Adenosine receptor A1 (Rattus norvegicus, UniProt P25099).
T1 sequence (P25099 whole entry): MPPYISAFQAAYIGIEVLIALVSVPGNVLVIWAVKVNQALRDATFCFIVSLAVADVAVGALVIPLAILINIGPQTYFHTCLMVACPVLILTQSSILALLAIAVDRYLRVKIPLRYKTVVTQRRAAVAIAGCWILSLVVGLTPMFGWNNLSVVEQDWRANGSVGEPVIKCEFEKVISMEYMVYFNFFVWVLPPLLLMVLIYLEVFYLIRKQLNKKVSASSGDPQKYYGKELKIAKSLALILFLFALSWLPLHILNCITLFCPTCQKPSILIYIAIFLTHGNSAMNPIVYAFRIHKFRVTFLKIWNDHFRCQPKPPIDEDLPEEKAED
Briefly: Binding affinity towards adenosine A1 receptor was determined using radioligand [3H]CHA in whole rat brain membranes at 25 degree C. Format: cell membranes.

`CCCn1c(=O)c2nc(CC(C)c3ccccc3)[nH]c2n(CCC)c1=O` (centres undefined): in experiment [1], the Ratio worked out at 18. In experiment [2], this compound had a Ki of 1.74 µM.

As to `CCCn1c(=O)c2nc([C@@H](CC)c3ccccc3)[nH]c2n(CCC)c1=O`, the Ratio in experiment [1] came out at 55. Also, the Ki came to 0.136 µM in experiment [3] and 7.5 µM in experiment [2].

As to `CCCC(Cc1ccccc1)c1nc2c(=O)n(CCC)c(=O)n(CCC)c2[nH]1` (centres undefined), the Ki in experiment [2] is 0.61 µM.

Compound `CCCn1c(=O)c2nc([C@@H](C)c3ccccc3)[nH]c2n(CCC)c1=O` displayed a Ki in experiment [2] of 12.9 µM.

With `CCCn1c(=O)c2nc([C@H](C)c3ccccc3)[nH]c2n(CCC)c1=O`, the Ki in experiment [2] was found to be 4.22 µM.

With `CCCn1c(=O)c2nc(C(CO)Cc3ccccc3)[nH]c2n(CCC)c1=O` (centres undefined), the inhibitory constant (Ki) in experiment [2] came out at 12.8 µM.

On to `CCCn1c(=O)c2nc(C(CC)c3ccccc3)[nH]c2n(CCC)c1=O` (centres undefined), for which the Ratio in experiment [1] came out at 95. Moreover, the Ki was 0.0335 µM in experiment [3] and 3.21 µM in experiment [2].

On to `CCCn1c(=O)c2nc(C(CC)Cc3ccccc3)[nH]c2n(CCC)c1=O` (centres undefined), for which the Ki in experiment [2] came out at 1.23 µM.

In turn, `CCCn1c(=O)c2nc(C(C)c3ccccc3)[nH]c2n(CCC)c1=O` (centres undefined) returned an inhibition constant Ki in experiment [2] of 4.9 µM.

Regarding `CCCn1c(=O)c2nc(C3Cc4ccccc4C3)[nH]c2n(CCC)c1=O`, the Ki in experiment [2] is 8.35 µM.

Compound `CCCn1c(=O)c2nc([C@H]3CCC[C@@H]3c3ccccc3)[nH]c2n(CCC)c1=O` showed a Ki in experiment [2] of 2.72 µM.

`CCCn1c(=O)c2nc(C3CCc4ccccc4C3)[nH]c2n(CCC)c1=O` (centres undefined) registered a Ki in experiment [2] of 10.3 µM.

On to `CCCn1c(=O)c2nc([C@H](CC)c3ccccc3)[nH]c2n(CCC)c1=O`, for which, in experiment [1], the Ratio was 153. This compound showed a Ki in experiment [2] of 3.51 µM.

(Values after ChEMBL document CHEMBL1126552 (J Med Chem, 1993).)
